Settings: Fluid (supercritical or subcritical phases), Dynamic light scattering

O=C=O [carbon dioxide]
Settings | thermal diffusivity [m2/s]
293.55 K, 10990 kPa | 4.54e-08
295.33 K, 8060 kPa | 3.64e-08
295.4 K, 10050 kPa | 4.04e-08
297.27 K, 7520 kPa | 2.9e-08
297.45 K, 7000 kPa | 2.67e-08
302.29 K, 11020 kPa | 3.74e-08
302.43 K, 8030 kPa | 2.25e-08
302.5 K, 8980 kPa | 2.81e-08
303.34 K, 10000 kPa | 3.28e-08
305.32 K, 7050 kPa | 3.23e-08
305.77 K, 7510 kPa | 1.22e-08
307 K, 8060 kPa | 8.8e-09
307.3 K, 9050 kPa | 2.14e-08
307.42 K, 10540 kPa | 2.76e-08
312.35 K, 8020 kPa | 2.68e-08
312.44 K, 9010 kPa | 9.3e-09
313.93 K, 10020 kPa | 1.71e-08
314.2 K, 11020 kPa | 2.66e-08
316.1 K, 7000 kPa | 6.47e-08
316.65 K, 7490 kPa | 5.72e-08
317.11 K, 9010 kPa | 1.99e-08
317.19 K, 10190 kPa | 1.4e-08
317.56 K, 8000 kPa | 4.32e-08
322.67 K, 10290 kPa | 2.13e-08
323.48 K, 11000 kPa | 1.97e-08
324.73 K, 9080 kPa | 4.26e-08
324.99 K, 8160 kPa | 6.12e-08
326.51 K, 7010 kPa | 8.98e-08
326.93 K, 7480 kPa | 7.92e-08
328.26 K, 11000 kPa | 2.63e-08
333.11 K, 11010 kPa | 3.22e-08
333.51 K, 9020 kPa | 6e-08
333.97 K, 8140 kPa | 8.06e-08
334.01 K, 10320 kPa | 4.36e-08
336.92 K, 7000 kPa | 1.08e-07
337.46 K, 7510 kPa | 1.02e-07
343.12 K, 8000 kPa | 9.67e-08
343.7 K, 9050 kPa | 7.77e-08
343.72 K, 10060 kPa | 6.38e-08
343.95 K, 10970 kPa | 5.2e-08
345.99 K, 11010 kPa | 5.38e-08
346.99 K, 7020 kPa | 1.31e-07
347.28 K, 7500 kPa | 1.17e-07
353.14 K, 10270 kPa | 7.34e-08
353.95 K, 9020 kPa | 9.9e-08
354.57 K, 8000 kPa | 1.15e-07
356.06 K, 11030 kPa | 7.11e-08
357.15 K, 7030 kPa | 1.46e-07
357.37 K, 7500 kPa | 1.37e-07
363.07 K, 10000 kPa | 8.99e-08
363.43 K, 9020 kPa | 1.07e-07
364.02 K, 8020 kPa | 1.31e-07
365.89 K, 11050 kPa | 8.37e-08
367.01 K, 7010 kPa | 1.62e-07
367.19 K, 7600 kPa | 1.54e-07
373.34 K, 10090 kPa | 1.04e-07
373.59 K, 9010 kPa | 1.24e-07
374.62 K, 8010 kPa | 1.49e-07
375.92 K, 11040 kPa | 9.69e-08
377.05 K, 7040 kPa | 1.82e-07
377.25 K, 7480 kPa | 1.75e-07
382.51 K, 10040 kPa | 1.23e-07
383.53 K, 8040 kPa | 1.66e-07
383.71 K, 9020 kPa | 1.41e-07
385.64 K, 10990 kPa | 1.15e-07
386.8 K, 7480 kPa | 1.87e-07
386.82 K, 7010 kPa | 2.09e-07
392.06 K, 10550 kPa | 1.32e-07
393.82 K, 9040 kPa | 1.57e-07
394.36 K, 7960 kPa | 1.89e-07
395.37 K, 11030 kPa | 1.23e-07
396.68 K, 7010 kPa | 2.2e-07
396.85 K, 7490 kPa | 2.04e-07
402.64 K, 10200 kPa | 1.45e-07
403.05 K, 9020 kPa | 1.66e-07
403.62 K, 8070 kPa | 1.98e-07
405.15 K, 11090 kPa | 1.3e-07
406.44 K, 7020 kPa | 2.38e-07
406.5 K, 7500 kPa | 2.2e-07
